Values of other authors as cited in publication PMC2788793 (Molecular immunology, 2008).

Target: mouse H2-Kb molecule (Mus musculus, UniProt P01901)
Conditions: ref Apostolopoulos et al., 2003

Chain of mouse H2-Kb molecule (P01901 whole entry, looked up): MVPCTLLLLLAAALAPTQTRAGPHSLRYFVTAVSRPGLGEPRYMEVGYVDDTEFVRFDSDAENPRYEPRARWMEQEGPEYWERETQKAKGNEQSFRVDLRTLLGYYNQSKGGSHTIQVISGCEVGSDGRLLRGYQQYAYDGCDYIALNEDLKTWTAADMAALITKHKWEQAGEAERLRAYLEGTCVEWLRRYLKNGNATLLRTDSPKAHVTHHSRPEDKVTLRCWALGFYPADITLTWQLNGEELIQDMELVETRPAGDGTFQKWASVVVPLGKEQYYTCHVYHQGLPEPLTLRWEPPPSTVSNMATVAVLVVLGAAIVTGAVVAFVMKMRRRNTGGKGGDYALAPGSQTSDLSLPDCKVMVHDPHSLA

Binding to mouse H2-Kb molecule: completely abolished its binding
Substance: SAPDT(GalNAc-Gal)RPA
